{
  "source": "patent US8697661B2",
  "about": "“Use of spinosyns and spinosyn compositions against herpesviridae viral infections” (priority 2009, dated 2014)",
  "key": {"[1]": {"system": "macrophage mice cell type J774", "settings": "read-out: Cytotoxicity CC50; J774"}, "[2]": {"system": "pancreatic tumor xenograph", "test": "Mouse pancreatic tumor xenograph assay", "assay_type": "in vivo", "settings": "for tumor volume on day1: baseline"}, "[3]": {"settings": "mouse code 3, total spinosad dosed 390 mg/kg i.p. over 20 days"}, "[4]": {"settings": "mouse code 6, total spinosad dosed 360 mg/kg i.p. over 20 days"}, "[5]": {"settings": "mouse code 9, total spinosad dosed 540 mg/kg i.p. over 20 days"}, "[6]": {"settings": "mouse code 10, total spinosad dosed 540 mg/kg i.p. over 20 days"}, "[7]": {"settings": "mouse code 12, total spinosad dosed 615 mg/kg i.p. over 20 days"}, "[8]": {"settings": "mouse code 13, total spinosad dosed 585 mg/kg i.p. over 20 days"}},
  "data": [
    {"substance": "Spinosad", "values": [
      {"measurement": "CC50", "setting": "[1]", "result": "42.6 ± 17.3", "unit": "µM"},
      {"measurement": "body weight", "setting": "[2]; CD-1 athymic nude male mice, spinosad in DMSO i.p., on top of weight loss by DMSO alone", "result": "some weight loss"},
      {"measurement": "% difference of tumor volume day 21 vs day1", "setting": "[2]; mouse code 3, total spinosad dosed 390 mg/kg", "result": "−42", "unit": "%"},
      {"measurement": "tumor volume on day 21", "setting": "[2]; [3]", "result": 107.7, "unit": "mm^3"},
      {"measurement": "tumor volume on day1", "setting": "[2]; [3]", "result": 184.7, "unit": "mm^3"},
      {"measurement": "% difference of tumor volume day 21 vs day1", "setting": "[2]; mouse code 6, total spinosad dosed 360 mg/kg", "result": "−2", "unit": "%"},
      {"measurement": "tumor volume on day 21", "setting": "[2]; [4]", "result": 254.7, "unit": "mm^3"},
      {"measurement": "tumor volume on day1", "setting": "[2]; [4]", "result": 260.6, "unit": "mm^3"},
      {"measurement": "% difference of tumor volume day 21 vs day1", "setting": "[2]; mouse code 9, total spinosad dosed 540 mg/kg", "result": "−33", "unit": "%"},
      {"measurement": "tumor volume on day 21", "setting": "[2]; [5]", "result": 119.8, "unit": "mm^3"},
      {"measurement": "tumor volume on day1", "setting": "[2]; [5]", "result": 179.9, "unit": "mm^3"},
      {"measurement": "% difference of tumor volume day 21 vs day1", "setting": "[2]; mouse code 10, total spinosad dosed 540 mg/kg", "result": "−44", "unit": "%"},
      {"measurement": "tumor volume on day 21", "setting": "[2]; [6]", "result": 128.9, "unit": "mm^3"},
      {"measurement": "tumor volume on day1", "setting": "[2]; [6]", "result": 228.9, "unit": "mm^3"},
      {"measurement": "% difference of tumor volume day 21 vs day1", "setting": "[2]; mouse code 12, total spinosad dosed 615 mg/kg", "result": "−11", "unit": "%"},
      {"measurement": "tumor volume on day 21", "setting": "[2]; [7]", "result": 142.1, "unit": "mm^3"},
      {"measurement": "tumor volume on day1", "setting": "[2]; [7]", "result": 159.4, "unit": "mm^3"},
      {"measurement": "% difference of tumor volume day 21 vs day1", "setting": "[2]; mouse code 13, total spinosad dosed 585 mg/kg", "result": 6, "unit": "%"},
      {"measurement": "tumor volume on day 21", "setting": "[2]; [8]", "result": 246.5, "unit": "mm^3"},
      {"measurement": "tumor volume on day1", "setting": "[2]; [8]", "result": 233.3, "unit": "mm^3"},
      {"measurement": "mean volume change", "setting": "[2]; spinosad treated group (6 mice), total 360-615 mg/kg i.p. over 20 days, day 21 vs day1, DMSO control 54%, P < 0.02", "result": "−21", "unit": "%"},
      {"measurement": "mean tumor volume decreased by", "setting": "[2]; spinosad treated group, 21st day, control/DMSO group increased 54%, P-value <0.02", "result": 21, "unit": "%"}
    ]}
  ]
}
